Experimental data published in patent US20060241096A1, “Agent for preventing or treating organ functional disorders and organ dysfunction” (priority 2001, published 2006).
Marks after values point to notes of the source that are not given here.

How the values were obtained:
myocardial infarction = experiment: Effect on myocardial infarction (Test Example 5); format: in vivo, rat; conditions: male Wistar rats, left coronary artery ligated 25 min, 2 hrs reperfusion, mean ± standard error, N = 7-10
Method: Each of 6-week old male Wistar rats (7-10 rats per group) was forced oral administration of vehicle, test compound 1 (2, 20 mg/kg), Atorvastatin (2, 20 mg/kg), Simvastatin (2, 20 mg/kg) using a gastric sonde by the volume of 1 mL/kg and once per day for 15 days. After 1 hr of the final administration, the anterior descending-branch of left coronary artery was ligated and reperfused after 25 min. After 2 hrs of reperfusion, Evance blue was intravenously injected from the right cervical vein so that the non-ischemic area was stained and can be distinguished from the ischemic area, and the rats were slaughtered. The ischemic area was carved out, and the living area was stained using p-nitroblue tetrazolium and distinguished from the necrotic area (portion of myocardial infarction). The area of myocardial infarction was calculated by the weight ratio relative to the ischemic area (Table 5).

[1] = test system: ubiquinone (CoQ9) in liver and heart; experiment: Ubiquinone increasing effect in liver and heart (Test Example 2); format: in vivo, rat; conditions: male SD rats, mean ± standard error, N = 8
Method: (§1) Each of 6-week old male SD rats (eight rats per group) was forced oral administration of a vehicle or test compound 1 using a gastric sonde by the volume of 5 mL/kg so that the doses became 6, 20, 60 mg/kg, respectively, once a day for 14 days. On the morning after 14 times of administration, the animals were beheaded to slaughter. Liver and hearts were collected immediately, frozen in liquid nitrogen and stored at −80° C. On the following day, the livers and hearts were homogenized and oxidized with iron(III) chloride. After extraction with ethanol/hexane, the concentration of ubiquinone was determined by HPLC (Table 2).

cerebral infarction = experiment: Cerebral infarction suppressing effect (Test Example 4); format: in vivo, rat; conditions: male SD rats, 14 administrations, arteria cerebri media occluded 2 h, 48 hrs reperfusion, TTC staining, mean ± standard error, N = 19-22
Method: Each of 6-week old male SD rats (19 to 22 rats per group) was forced oral administration of a vehicle or test compound 1 using a gastric sonde by the volume of 5 mL/kg so that the doses became 2, 20 mg/kg, respectively, using a gastric sonde. The day after 14 times of administration, a silicone plug was inserted from the carotid artery under halothane anesthetic to occlude proximal portion of the arteria cerebri media. After two hours, the plug was removed under light anesthetic, and reperfusion was carried out. After 48 hrs of reperfusion, the rats were beheaded to slaughter. Six pieces of sliced brain from the forehead (thickness: 2 mm) were carved out and subjected to TTC staining (1% TTC, 37° C., 15 min). The TTC-stained image was photographed by a digital camera, and the area of cerebral infarction was measured by an image analyzer. (Table 4)

[2] = test system: ubiquinone (CoQ9, CoQ10) in brain; experiment: Ubiquinone increasing effect in brain (Test Example 3); format: in vivo, rat; conditions: male SD rats, 14 administrations, arteria cerebri media occluded 2 h, 8 hrs reperfusion, right cerebral cortices and striata, mean ± standard error, N = 8
Method: Each of 6-week old male SD rats (eight rats per group) was forced oral administration of a vehicle or test compound 1 using a gastric sonde by the volume of 5 mL/kg so that the doses became 2, 20 mg/kg, respectively. The day after 14 times of administration, a silicone plug was inserted from the carotid artery under halothane anesthetic to occlude proximal portion of the arteria cerebri media. After two hours, the plug was removed under light anesthetic, and reperfusion was carried out. After 8 hrs of reperfusion, the rats were beheaded to slaughter. The right cerebral cortices and striata were collected, frozen on dry ice and preserved at −80° C. On the following day, the right cerebral cortices and striata were homogenized and oxidized with iron(III) chloride. After extraction with ethanol/hexane, the concentration of ubiquinone was determined by HPLC (Table 3).

[3] = test system: ubiquinone (CoQ9) in heart; experiment: Ubiquinone increasing effect in heart (Test Example 1); format: in vivo, rat; conditions: male SD rats, mean ± standard error, N = 8
Method: as §1, with “Hearts” for “Liver and hearts”, “the” for “the livers and”, “1).” for “2).”

[4] = 2 mg/kg oral once per day for 15 days
[5] = 20 mg/kg oral once per day for 15 days
[6] = 6 mg/kg oral once a day for 14 days
[7] = 20 mg/kg oral once a day for 14 days
[8] = 60 mg/kg oral once a day for 14 days

Structure (SMILES): CCC(C)(C)C(=O)O[C@H]1C[C@@H](C)C=C2C=C[C@H](C)[C@H](CC[C@@H]3C[C@@H](O)CC(=O)O3)[C@H]21 [Simvastatin]
- Area of myocardial infarction (myocardial infarction; [4]): 51 ± 3 % ischemic area
- Area of myocardial infarction (myocardial infarction; [5]): 51 ± 2 % ischemic area

Structure (SMILES): CC(C)c1c(C(=O)Nc2ccccc2)c(-c2ccccc2)c(-c2ccc(F)cc2)n1CC[C@@H](O)C[C@@H](O)CC(=O)O [Atorvastatin]
- Area of myocardial infarction (myocardial infarction; [4]): 51 ± 4 % ischemic area
- Area of myocardial infarction (myocardial infarction; [5]): 47 ± 6 % ischemic area

Structure (SMILES): COc1cccc([C@H]2O[C@H](CC(=O)Nc3cccc(CCC(=O)O)c3)C(=O)N(CC(C)(C)CO)c3ccc(Cl)cc32)c1OC [Compound 2, 3-[3-[[(3R,5S)-7-chloro-5-(2,3-dimethoxyphenyl)-1-(3-hydroxy-2,2-dimethylpropyl)-2-oxo-1,2,3,5-tetrahydro-4,1-benzoxazepin-3-yl]acetyl]aminophenyl]propionic acid]
- Amount of CoQ9 in heart [1, 6]: 202.7 ± 2.7 μg/g heart
- Amount of CoQ9 in liver [1, 6]: 105.2 ± 3.5 μg/g liver
- Amount of CoQ9 in heart [1, 7]: 208.3 ± 4.6 μg/g heart
- Amount of CoQ9 in liver [1, 7]: 117.6 ± 4.6 μg/g liver
- Amount of CoQ9 in heart [1, 8]: 204.7 ± 4.0 μg/g heart
- Amount of CoQ9 in liver [1, 8]: 125.4 ± 3.4 μg/g liver
- melting point: 141 to 144 °C

Structure (SMILES): COc1cccc([C@H]2O[C@H](CC(=O)N3CCC(CC(=O)O)CC3)C(=O)N(CC(C)(C)COC(C)=O)c3ccc(Cl)cc32)c1OC [Compound 1, N-[[(3R,5S)-1-(3-acetoxy-2,2-dimethylpropyl)-7-chloro-5-(2,3-dimethoxyphenyl)-2-oxo-1,2,3,5-tetrahydro-4,1-benzoxazepin-3-yl]acetyl]piperidine-4-acetic acid]
- Volume of cerebral infarction (cerebral infarction; 2 mg/kg oral): 289 ± 27 mm^3
- Volume of cerebral infarction (cerebral infarction; 20 mg/kg oral): 220 ± 35* mm^3
- Amount of CoQ9 in brain ([2]; 2 mg/kg oral): 22.0 ± 0.4 μg/g brain
- Amount of CoQ10 in brain ([2]; 2 mg/kg oral): 13.0 ± 0.3 μg/g brain
- Amount of CoQ9 in brain ([2]; 20 mg/kg oral): 24.9 ± 0.5 μg/g brain
- Amount of CoQ10 in brain ([2]; 20 mg/kg oral): 14.7 ± 0.3 μg/g brain
- Area of myocardial infarction (myocardial infarction; [4]): 61 ± 4 % ischemic area
- Area of myocardial infarction (myocardial infarction; [5]): 43 ± 2 % ischemic area
- Amount of CoQ9 in heart [3, 6]: 214.4 ± 6.6 μg/g heart
- Amount of CoQ9 in heart [3, 7]: 215.3 ± 5.7 μg/g heart
- Amount of CoQ9 in heart [3, 8]: 225.0 ± 4.6 μg/g heart
